Positions count from the first letter of the chain named.
Assays:
GluRδ2^Wt C811S = biological target: T1, GluRδ2^Wt C811S (Rattus norvegicus, UniProt Q63226, C811S); experiment: Two-electrode voltage-clamp recordings in Xenopus oocytes, GluRδ2^Wt C811S; type: cell-based; conditions: data not shown
T1 sequence (Q63226 24-1007 C811S): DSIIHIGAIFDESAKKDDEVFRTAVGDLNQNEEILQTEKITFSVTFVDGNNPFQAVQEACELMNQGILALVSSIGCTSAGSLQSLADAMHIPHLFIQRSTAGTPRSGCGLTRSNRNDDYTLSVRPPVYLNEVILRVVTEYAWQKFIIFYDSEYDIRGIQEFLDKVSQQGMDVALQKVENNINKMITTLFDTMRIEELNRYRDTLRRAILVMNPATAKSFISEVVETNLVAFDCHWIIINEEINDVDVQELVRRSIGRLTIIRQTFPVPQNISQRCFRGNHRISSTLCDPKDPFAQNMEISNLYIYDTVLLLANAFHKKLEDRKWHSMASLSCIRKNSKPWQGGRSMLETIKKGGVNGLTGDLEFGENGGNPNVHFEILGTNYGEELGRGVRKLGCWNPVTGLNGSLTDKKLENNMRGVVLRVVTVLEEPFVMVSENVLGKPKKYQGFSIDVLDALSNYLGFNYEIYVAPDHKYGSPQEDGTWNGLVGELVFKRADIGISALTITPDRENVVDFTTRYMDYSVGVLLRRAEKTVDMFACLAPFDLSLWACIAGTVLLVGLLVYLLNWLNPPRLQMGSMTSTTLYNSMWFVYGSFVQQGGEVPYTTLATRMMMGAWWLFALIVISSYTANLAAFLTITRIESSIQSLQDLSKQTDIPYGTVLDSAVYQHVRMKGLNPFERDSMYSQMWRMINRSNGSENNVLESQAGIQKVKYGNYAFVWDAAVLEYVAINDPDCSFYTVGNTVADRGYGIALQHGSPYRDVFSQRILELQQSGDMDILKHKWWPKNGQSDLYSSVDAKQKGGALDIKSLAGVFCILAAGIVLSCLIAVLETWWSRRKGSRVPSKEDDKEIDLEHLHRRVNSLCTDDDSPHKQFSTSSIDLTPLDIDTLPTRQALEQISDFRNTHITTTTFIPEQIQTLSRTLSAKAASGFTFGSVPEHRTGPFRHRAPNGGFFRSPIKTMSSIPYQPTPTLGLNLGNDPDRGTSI

[1] = biological target: T2, GluRδ2^Wt P528C+L789C+C811S (Rattus norvegicus, UniProt Q63226, C811S/L789C/P528C); type: cell-based; conditions: data not shown
T2 sequence (Q63226 24-1007 P528C/L789C/C811S): T1 sequence (Q63226 24-1007 C811S) with P505C, L766C

N[C@H](CO)C(=O)O [D-serine]
response to D-serine (GluRδ2^Wt C811S): Neither the C811S mutation nor the triple P528C+L789C+C811S mutation resulted in measurable responses
response to D-serine [1]: Neither the C811S mutation nor the triple P528C+L789C+C811S mutation resulted in measurable responses

Source: publication PMC2806602 (The Journal of neuroscience : the official journal of the …, 2009)
